Test results published in PMC7288052 (Molecules, 2020).
Read-outs that look alike come from different tables or passages of the source. Non-standard residues stand in square brackets, D forms with d. Residues, ends and D or L forms follow the SMILES beside them.

Assays:
[1] = stability against proteolysis in human plasma by HPLC/MS; assay type: in vitro ADME; conditions: for remaining at 96 h, 350 µM: read-out: C96h, percent of the initial peptide concentration remaining after 96 h; for site of the first proteolytic cleavage: HPLC/MS; for stability in human plasma in words: up to 96 h, compared to TAPP; for half-life at […] / half-life: read-out: half-life time (T1/2) in human plasma (converted)
Description: The results are graphically presented in Figure 7 and the representative HPLC chromatograms are given in Figures SM-STAB-1 to SM-STAB-22 in Supplementary Materials. […] After 96 h, more than 90% of the initial peptide concentration (C96h > 90%) remained in the test sample. This is in marked contrast to endomorphin-2 (Tyr-Pro-Phe-Phe-NH2) that, in the very same conditions, is rapidly degraded with half-life time (T1/2) of only 30 min.
The determination of plasma stability was performed according to a previously described protocol with minor modifications. Human plasma for testing was obtained from a healthy donor. […] Portions of the plasma (100 μL) were dispensed into Eppendorf tubes and equilibrated at 37 ± 1 °C for 5 min, before adding 100 μL of the stock solution of each tested peptide. Samples of the test solution were taken and analyzed at several time points (0, 1, 2, 3, 4, 5, 6, 12, 24, 48, and 96 h of the experiment).
In order to precipitate the plasma proteins, 400 μL ethanol (98%) was added to the samples, whereafter shaking (1 min) and cooling in 4 °C (5 min) followed. Subsequently, the samples were centrifuged for 10 min at 2000 g. The supernatant (20 μL) was immediately analyzed by HPLC/MS using the LCMS-2010EV Shimadzu apparatus with a Phenomenex Jupiter 4u Proteo 90A, C12 (25 cm × 2 mm × 4 μm) column. The chromatography was performed in reversed-phase system (solvents A: 0.05% FA in water, B: 0.05% FA in acetonitrile) with a non-linear gradient was used (1–31% B in 20 min followed by an increase to 97% B from 20 to 30 min) at a solvent flow of 0.5 mL/min. The activity of the plasma was confirmed by using endomorphin-2 ([…]) as a control sample. The results of the HPLC/MS analyses allowed for quantitative determination of the concentration changes of the tested peptides. Furthermore, it was possible to indicate the location of the first proteolytic cleavage.

[2] = molecular target: T1, δ-opioid receptor (δOR) (Rattus norvegicus, UniProt P33533); assay: competitive radioligand displacement assay, δOR, [3H]DELT II, rat brain homogenate membranes; assay type: binding; conditions: for δOR affinity in words: [3H]DELT II displacement, compared to parent TAPP
T1 construct: from tissue; host or cells: rat brain homogenate (membrane fractions)
T1 sequence (P33533 whole entry): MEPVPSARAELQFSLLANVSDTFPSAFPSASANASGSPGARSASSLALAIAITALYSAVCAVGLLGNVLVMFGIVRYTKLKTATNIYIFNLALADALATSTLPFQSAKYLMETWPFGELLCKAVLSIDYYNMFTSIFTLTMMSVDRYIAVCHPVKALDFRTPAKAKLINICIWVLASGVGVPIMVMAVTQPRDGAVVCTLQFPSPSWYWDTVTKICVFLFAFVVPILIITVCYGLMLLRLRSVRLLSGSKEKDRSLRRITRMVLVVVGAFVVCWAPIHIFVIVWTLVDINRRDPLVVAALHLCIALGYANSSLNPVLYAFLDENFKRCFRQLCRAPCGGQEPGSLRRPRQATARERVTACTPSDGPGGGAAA
Description: (§1) The determinations were performed by a competitive radioligand displacement assay with selective radioligands.
(§2) Membrane fractions of rat brain Homogenate were incubated at 25 °C for 60 mins in the presence of radioligands (0.5 nM) specific for each receptor (μOR: [^3H]DAMGO and δOR: [^3H]DELT II, obtained as a generous gift from Prof. Géza Tóth) and the increasing concentrations of the tested compounds (10^−11 up to 10^−5 M, each concentration in duplicate). For measuring non-specific binding, 10 μM naloxone was used as the competitor. The assay buffer contained 50mM Tris-HCl (pH 7.4), bovine serum albumin (0.1 mg/mL), bacitracin (30 μg/mL), bestatin (30 μM), captopril (10 μM), and phenylmethylsulfonyl fluoride (0.1 mM) in the total reaction volume of 1 mL. After the incubation, the binding reactions were terminated by rapid filtration with M-24 Cell Harvester (Brandel/USA) through GF/B Whatman glass fibre strips. The filters were pre-soaked with 0.5% PEI before harvesting in order to minimize non-specific binding. Filter discs were placed separately in 24-well plates and immersed with the Optiphase Supermix scintillation cocktail (Perkin Elmer, Waltham, MA, USA). Radioactivity was measured using a MicroBeta LS Trilux scintillation counter (PerkinElmer, Waltham, MA, USA).

[3] = Human plasma for testing was obtained from a healthy donor; conditions: 37 ± 1 °C, up to 96 h
[4] = molecular target: T2, μ-opioid receptor (μOR) (Rattus norvegicus, UniProt P33535); assay: competitive radioligand displacement assay, μOR, [3H]DAMGO, rat brain homogenate membranes; assay type: binding; conditions: for decrease in μOR affinity compared to the parent TAPP: ratio of IC50 versus TAPP
T2 construct: from tissue; host or cells: rat brain homogenate (membrane fractions)
T2 sequence (P33535 whole entry): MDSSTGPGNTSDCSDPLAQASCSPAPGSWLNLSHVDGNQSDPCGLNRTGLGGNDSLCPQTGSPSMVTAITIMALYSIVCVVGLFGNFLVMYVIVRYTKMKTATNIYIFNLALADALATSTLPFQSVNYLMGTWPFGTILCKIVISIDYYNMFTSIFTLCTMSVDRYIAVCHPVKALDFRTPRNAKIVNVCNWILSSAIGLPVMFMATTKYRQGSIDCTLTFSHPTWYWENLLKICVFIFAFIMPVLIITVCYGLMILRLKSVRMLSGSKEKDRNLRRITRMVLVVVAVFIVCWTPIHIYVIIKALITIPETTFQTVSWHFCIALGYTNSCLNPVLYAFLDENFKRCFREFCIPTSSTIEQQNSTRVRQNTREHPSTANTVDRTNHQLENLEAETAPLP
Description: as §1, §2

[5] = radioligand 0.5 nM [3H]DAMGO, rat brain homogenate, mean of three determinations in duplicate, read-out: IC50 ± S.E.M. μOR
[6] = radioligand 0.5 nM [3H]DELT II, rat brain homogenate, mean of three determinations in duplicate, read-out: IC50 δOR

With `C[C@@H](NC(=O)[C@@H](N)Cc1ccc(O)cc1)C(=O)N[C@@H](Cc1ccccc1)C(=O)N[C@@H](Cc1ccccc1)C(N)=O` [compound 1, H-Tyr-D-Ala-Phe-Phe-NH2, reference compound] (HELM PEPTIDE1{Y.[dA].F.F.[am]}$$$$V2.0) the remaining at 96 h, 350 µM ([1]; 37 °C) was greater than 90%, the “site of the first proteolytic cleavage” value [1] was “C-terminal amide (deamidation)” and the “stability in human plasma in words” value [1] was “resistant to proteolysis”. For the same molecule, the IC50 [2] was 616 nM and the “δOR affinity in words” value [2] was “low binding”.
Work on `NC(=O)[C@H](Cc1ccccc1)NC(=O)[C@H](Cc1ccccc1)NC(=O)[C@@H]1CCCN1C(=O)[C@@H](N)Cc1ccc(O)cc1` [endomorphin-2, Tyr-Pro-Phe-Phe-NH2, reference compound] yielded a half-life at […] ([1]; same conditions, control sample) of 0.5 h.
In the case of [(R)-β^2hAla^2]-TAPP, the cleaved bond [3] is reported as “Tyr1-(R)-β^2hAla2, first_seen”.
For [(S)-β^2hTyr^1]-TAPP *, the cleaved bond [3] was “Phe4-NH2, first_seen”.
With [(S)-β^2hAla^2]-TAPP the cleaved bond [3] was “Tyr1-(S)-β^2hAla2, first_seen”.
For `C[C@@H](NC(=O)[C@H](CN)Cc1ccc(O)cc1)C(=O)N[C@@H](Cc1ccccc1)C(=O)N[C@@H](Cc1ccccc1)C(N)=O` [compound 13, [(S)-β^2hTyr^1]-TAPP*], the IC50 [4, 5] was 339 ± 5.1 nM, the “site of the first proteolytic cleavage” value [1] was “C-terminal amide (deamidation)” and the “stability in human plasma in words” value [1] was “stability similar to TAPPs”. For the same molecule, the “δOR affinity in words” value [2] was “did not exhibit any measurable binding” and the IC50 [2, 6] was greater than 10000 nM.
With [(R)-β^2hPhe^3]-TAPP the cleaved bond [3] was “Tyr1-D-Ala2, first_seen”.
For [(R)-β^2h-m-Tyr^1]-TAPP*, the cleaved bond [3] was “Phe4-NH2, first_seen”.
`C[C@@H](CNC(=O)[C@@H](N)Cc1ccc(O)cc1)C(=O)N[C@@H](Cc1ccccc1)C(=O)N[C@@H](Cc1ccccc1)C(N)=O` [compound 10, [(S)-β^2hAla^2]-TAPP] showed a half-life ([1]; 37 °C) of roughly 4.5 h.
For `C[C@@H](NC(=O)[C@@H](N)Cc1ccc(O)cc1)C(=O)N[C@@H](Cc1ccccc1)C(=O)NC[C@H](Cc1ccccc1)C(N)=O` [compound 17, [(S)-β^2hPhe^4]-TAPP], the IC50 [4] was 7.8 ± 4 nM, the remaining at 96 h, 350 µM ([1]; 37 °C) was roughly 90% and the “stability in human plasma in words” value [1] was “equally resistant to proteolysis as the parent”. For the same molecule, the IC50 [2] was 417 nM and the “δOR affinity in words” value [2] was “slight improvement in δOR affinity when compared to the parent peptide”.
In the case of `C[C@@H](NC(=O)[C@H](CN)Cc1cccc(O)c1)C(=O)N[C@@H](Cc1ccccc1)C(=O)N[C@@H](Cc1ccccc1)C(N)=O` [compound 14, [(S)-β^2h-m-Tyr^1]-TAPP*], the IC50 [4, 5] is reported as 11.2 ± 6.3 nM, the “site of the first proteolytic cleavage” value [1] is reported as “C-terminal amide (deamidation)” and the “stability in human plasma in words” value [1] is reported as “stability similar to TAPPs”. The “δOR affinity in words” value [2] was “did not exhibit any measurable binding” and the IC50 [2, 6] was greater than 10000 nM.
With [(S)-β^2h-m-Tyr^1]-TAPP* the cleaved bond [3] was “Phe4-NH2, first_seen”.
With `C[C@@H](NC(=O)[C@@H](N)Cc1ccc(O)cc1)C(=O)N[C@@H](Cc1ccccc1)C(=O)NC[C@@H](Cc1ccccc1)C(N)=O` [compound 12, [(R)-β^2hPhe^4]-TAPP] the IC50 [4] was 1.9 ± 2.4 nM, the remaining at 96 h, 350 µM ([1]; 37 °C) was 55% and the IC50 [2] was 708 nM. The “δOR affinity in words” value [2] was “at a level similar to the parent TAPP”.
For [(R)-β^2hTyr^1]-TAPP*, the cleaved bond [3] was “Phe4-NH2, first_seen”.
In the case of [(R)-β^2hPhe^4]-TAPP, the cleaved bond [3] is reported as “Tyr1-D-Ala2, first_seen”.
With H-Y[dA]FF-NH2 the cleaved bond [3] was “Phe4-NH2, first_seen”.
For `C[C@@H](NC(=O)[C@@H](CN)Cc1cccc(O)c1)C(=O)N[C@@H](Cc1ccccc1)C(=O)N[C@@H](Cc1ccccc1)C(N)=O` [compound 9, [(R)-β^2h-m-Tyr^1]-TAPP*], the IC50 [4, 5] was 48.9 ± 2.3 nM, the “site of the first proteolytic cleavage” value [1] was “C-terminal amide (deamidation)” and the “stability in human plasma in words” value [1] was “stability similar to TAPPs”. For the same molecule, the “δOR affinity in words” value [2] was “did not exhibit any measurable binding” and the IC50 [2, 6] was greater than 10000 nM.
With `C[C@@H](NC(=O)[C@@H](N)Cc1ccc(O)cc1)C(=O)NC[C@@H](Cc1ccccc1)C(=O)N[C@@H](Cc1ccccc1)C(N)=O` [compound 11, [(R)-β^2hPhe^3]-TAPP] the IC50 [4] was 95.4 ± 2.5 nM, the “decrease in μOR affinity compared to the parent TAPP” value [4] was “more than 10 fold” and the half-life at […] ([1]; 37 °C) was roughly 40 h. For the same molecule, the IC50 [2] was 794 nM and the “δOR affinity in words” value [2] was “at a level similar to the parent TAPP”.
In the case of `C[C@@H](NC(=O)[C@@H](N)Cc1ccc(O)cc1)C(=O)NC[C@H](Cc1ccccc1)C(=O)N[C@@H](Cc1ccccc1)C(N)=O` [compound 16, [(S)-β^2hPhe^3]-TAPP], the IC50 [4] is reported as 15.5 ± 2.5 nM, the remaining at 96 h, 350 µM ([1]; 37 °C) is reported as greater than 65% and the IC50 [2] is reported as 890 nM. For the same molecule, the “δOR affinity in words” value [2] was “at a level similar to the parent TAPP”.
Molecule `C[C@H](CNC(=O)[C@@H](N)Cc1ccc(O)cc1)C(=O)N[C@@H](Cc1ccccc1)C(=O)N[C@@H](Cc1ccccc1)C(N)=O` [compound 15, [(R)-β^2hAla^2]-TAPP] has a half-life ([1]; 37 °C) of roughly 4.5 h.
With [(S)-β^2hPhe^3]-TAPP the cleaved bond [3] was “Tyr1-D-Ala2, first_seen”.
For [(S)-β^2hPhe^4]-TAPP, the cleaved bond [3] was “Tyr1-D-Ala2, first_seen”.
In the case of `C[C@@H](NC(=O)[C@@H](CN)Cc1ccc(O)cc1)C(=O)N[C@@H](Cc1ccccc1)C(=O)N[C@@H](Cc1ccccc1)C(N)=O` [compound 8, [(R)-β^2hTyr^1]-TAPP*], the IC50 [4, 5] is reported as 77.6 ± 2.4 nM, the “decrease in μOR affinity compared to the parent TAPP” value [4] is reported as “about 15 fold” and the “site of the first proteolytic cleavage” value [1] is reported as “C-terminal amide (deamidation)”. For the same molecule, the “stability in human plasma in words” value [1] was “stability similar to TAPPs”, the “δOR affinity in words” value [2] was “did not exhibit any measurable binding” and the IC50 [2, 6] was greater than 10000 nM.
